# Data taken from patent US6413948B1, “Pharmaceutical compositions and methods of effecting a neuronal activity in an animal using naaladase inhibitors” (Guilford Pharmaceuticals Inc., priority 1996, dated 2002).
# What was measured:
# MPTP lesioned mice = assay: In vivo assay on Parkinson's Disease (MPTP lesioned mice, TH immunostaining); parameters: species or system CD1 white mice
# Description: MPTP lesioning of dopaminergic neurons in mice was used as an animal model of Parkinson's Disease, as described by Steiner, Proc. Natl. Acad. Sci., Vol. 94, pp. 2019-2024 (March 1997). In brief, four week old male CD1 white mice were dosed IP with 30 mg/kg of MPTP for 5 days. […] At 18 days following MPTP treatment, the mice were sacrificed and their brains were removed and sectioned. Immunostaining was performed on saggital and coronal brain sections using anti-tyrosine hydroxylase (TH) antibodies to quantitate survival and recovery of dopaminergic neurons.
# [1] = tested on: mouse sciatic nerve following cryolesion; assay: In vivo assay on myelin formation following sciatic nerve cryolesion; parameters: species or system mice; conditions: silicone implants, approximately 2.5 μg/day, 15 days after surgery
# Description: Cryolesion of the mouse sciatic nerve was performed according to Koenig et al., Science, Vol. 268, pp. 1500-1503 (June 1995). In brief, each mouse was anesthetized and its sciatic nerve was exposed in the upper thigh and cryolesioned using a copper cryode (diameter=0.5 mm) that was dipped in liquid nitrogen and repeatedly applied to the upper part of the nerve. The extent of the lesion was approximately 1 mm.
# Fifteen days after surgery, the mice were sacrificed and their sciatic nerve segments were collected and processed for light microscopy and TEM analysis. Randomly chosen fields 2-3 mm distal to the lesion were qualitatively analyzed by light microscopy using 1-micrometer-thick toluidine blue stained cross sections and photographic images were captured.
# [2] = tested on: SHRSP rats which had sustained middle cerebral artery occlusion (MCAO); assay: In vivo assay on cortical injury following MCAO in SHRSP rats
# Excerpt: A colony of SHRSP rats is bred at Johns Hopkins School of Medicine from three pairs of male and female rats obtained from the National Institutes of Health (Laboratory, Sciences Section, Veterinary Resources Program, National Center for Research Resources, Bethesda, Md.). All rats are kept in a virus-free environment and maintained on regular diet (NIH 31, Zeigler Bros, Inc.) with water ad libitum. All groups of rats are allowed to eat and drink water until the morning of the experiment.
# Transient occlusion of the middle cerebral artery (MCA) is induced by advancing a 4-0 surgical nylon suture into the internal carotid artery (ICA) to block the origin of the MCA (Koizumi, 1986; Longa, 1989; Chen, 1992). The rats are anesthetized with 4% halothane, and maintained with 1.0% to 1.5% halothane in air enriched oxygen using a face mask. Rectal temperature is maintained at 37.0±0.5° C. throughout the surgical procedure using a heating lamp. The right femoral artery is cannulated for measuring blood gases (pH, oxygen tension [PO2], carbon dioxide tension [PCO2]) before and during ischemia, for monitoring blood pressure during the surgery. The right common carotid artery (CCA) is exposed through a midline incision; a self-retraining retractor is positioned between the digastric and mastoid muscles, and the omohyoid muscle is divided. The right external carotid artery (ECA) is dissected and ligated. The occipital artery branch of the ECA is then isolated and coagulated. Next, the right internal carotid artery (ICA) is isolated until the pterygopalatine artery is exposed, and carefully separated from the adjacent vagus nerve. The pterygopalatine artery is ligated with 4-0 silk suture close to its origin.
# After the CCA is ligated with 4-0 silk suture, a 4-0 silk suture to prevent bleeding from a puncture site, through which a 2.5 cm length of 4-0 monofilament nylon suture (Ethilon), its tip rounded by heating near a electric cautery, is introduced into the ICA lumen. A 6-0 silk suture is tightened around the intraluminal nylon suture at the bifurcation to prevent bleeding, and the stretched sutures at the CCA and the ICA are released. The nylon suture is then gently advanced as far as 20 mm.
# Anesthesia is terminated after 10 minutes of MCA occlusion in both groups, and the rats were awakened 5 minutes thereafter. After 2 hours of ischemia, anesthesia is reanesthetized, and reperfusion is performed by withdrawing the intraluminal nylon suture until the distal tip became visible at the origin of the ICA.
# Arterial pH and PaCO2, and partial pressure of oxygen (PaO2) are measured with a self-calibrating Radiometer electrode system (ABL 3; Copenhagen, Denmark). Hemoglobin and arterial oxygen content are measured with a hemoximeter (Radiometer, Model OSM3; Copenhagen, Denmark). Blood glucose is measured with a glucose analyzer (model 2300A, Yellow Springs Instruments, Yellow Springs, Ohio).
# Each group is exposed to 2 hours of right MCA occlusion and 22 hours of reperfusion. All variables but the rectal temperature are measured at baseline, at 15 minutes and 45 minutes of right MCA occlusion. The rectal temperature is measured at baseline, at 0 and 15 min of MCA occlusion, and at 0 and 22 hours of reperfusion.
# [3] = tested on: stroke-induced rise in brain glutamate levels; assay: In vivo assay on stroke-induced rise in brain glutamate levels (microdialysis); parameters: species or system Sprague Dawley rats; conditions: rat
# Description: Male Sprague Dawley rats (270-330 g, n=5-6 per group) were implanted with concentric microdialysis probes similar to previously described procedures (Britton et al., J. Neurochem., Vol. 67, pp. 324-329 (1996)). In brief, under halothane anaesthesia, probes (constructed in-house using Cuprophane capillary membrane; 10K mw cut off; 2 mm dialyzing length) were implanted into the frontal cortex (AP=+3.5; ML=3; DIV=3), caudate nucleus (AP=0; ML=3; DV=6.6), and parietal cortex (AP=−2; ML=5; DV=3) (coordinates in mm relative to bregma and dura, respectively), regions believed to represent core and penumbral areas of ischemia-induced injury. Glutamate levels in dialysate were determined using precolumn o-phthaldialdehyde derivatization, followed by HPLC with fluorometric detection.
# Following a 60 minute stabilization period, dialysis samples were collected every 20 minutes. After collecting 3 baseline samples, the rats were anaesthetized with halothane and subjected to temporary ischemia using the filament method of MCAO (Britton et al., Life Sciences, Vol. 60, No. 20, pp. 1729-1740 (1997)). In brief, the right external carotid artery (ECA) was exposed and its branches coagulated. A 3-0 monofilament nylon suture was introduced into the internal carotid artery via an arteriotomy in the ECA and advanced until it lodged in the proximal region of the anterior cerebral artery, thus occluding the origin of the MCA. The endovascular suture was retracted to allow reperfusion 2 hours after occlusion.
# Body temperature was maintained normothermic throughout stroke surgery and reperfusion procedures. […] Dialysis samples were collected every 20 minutes from unanesthetized rats.
# [4] = 10 mg/kg followed by 2 mg/kg/hr for 1 hour
# [5] = 100 mg/kg followed by 20 mg/kg/hr for one hour
compound,measurement,setting,value
O=C(O)CCC(CP(=O)(O)O)C(=O)O (stereo not shown) [2-(phosphonomethyl)pentanedioic acid],Percent Strial TH Innervation Density (mean ± SEM),MPTP lesioned mice; MPTP 30 mg/kg IP for 5 days plus compound 10 mg/kg SC,16.28 ± 0.98%
same,recovery of TH-stained dopaminergic neurons (in words),"MPTP lesioned mice; lesioned mice, 10 mg/kg, p<0.001",significant recovery
same,# of myelinated lamellae (ave. + SEM),[1],16.53 ± 0.65
same,% increase of myelinated lamellae over vehicle,[1],20%
same,Cortical Injury Volume (% injury) ± S.E.M.,[2]; [4],29.14 ± 7.68 (n = 10) % injury
same,Cortical Injury Volume (mm^3) ± S.E.M.,[2]; [4],135.00 ± 32.18 (n = 10) mm^3
same,Cortical Protection (% protection),[2]; [4],27%
same,Cortical Injury Volume (% injury) ± S.E.M.,[2]; [5],13.98 ± 6.64 (n = 10) % injury
same,Cortical Injury Volume (mm^3) ± S.E.M.,[2]; [5],65.23 ± 32.18 (n = 10) mm^3
same,Cortical Protection (% protection),[2]; [5],65%
same,concurrent glutamate changes in the parietal cortex,[3],completely prevented
same,glutamate in the frontal cortex,[3],no subsequent difference
same,stroke-induced extracellular glutamate increases in the striatum,[3],significantly attenuated
